Like-named read-outs stand apart in the source and are kept apart here.
How the values were obtained:
[1] = test system: REL-A (p65) nuclear translocation in HeLa cells; test: REL-A nuclear translocation assay (classical NF-kB signaling), high content imaging; assay type: cell-based; settings: Homo sapiens, compounds 4.5 hours, then 10 ng/mL TNF-α for 30 minutes, read-out: REL-A HeLa Transloc Assay (IC50)
How it was run: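 HeLa cells in 10% FBS medium preincubated with compounds (0.2% DMSO final) for 4.5 hours, then stimulated with 10 ng/mL TNF-α for 30 minutes. Fixed cells stained with 400 ng/mL anti-REL-A antibody, Alexa488 secondary and DRAQ5; translocation quantified by imaging as nuclear to cytoplasmic signal ratio.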

[2] = test system: p52 (NF-kB2) nuclear translocation in HeLa cells; test: p52 nuclear translocation assay (non-classical NF-kB signaling), high content imaging; assay type: cell-based; settings: Homo sapiens, 100 ng/mL anti-lymphotoxin beta receptor antibody for 5 hours, read-out: p52 HeLa Transloc Assay (IC50)
How it was run: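 HeLa cells in 10% FBS medium were treated with compound (0.2% DMSO final), then stimulated 5 h with 100 ng/mL anti-lymphotoxin beta receptor antibody. After fixation, cells were immunostained for p52 (2 ug/mL antibody) with DRAQ5 nuclear stain and imaged by high-content imaging. IC50 in µM was derived from the nuclear/cytoplasmic signal ratio.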

[3] = biological target: nuclear factor-kappa B (NF-kB)-inducing kinase (NIK) (Homo sapiens (Human), UniProt Q99558); test: NIK Enzyme Inhibition Assay (Transcreener ADP fluorescence polarization); assay type: biochemical; settings: purified NIK 0.2-1 nM, 10 uM ATP, Morrison's quadratic equation; read-out: NIK ADP-FP (Ki uM)
nuclear factor-kappa B (NF-kB)-inducing kinase (NIK), sequence (Q99558 whole entry): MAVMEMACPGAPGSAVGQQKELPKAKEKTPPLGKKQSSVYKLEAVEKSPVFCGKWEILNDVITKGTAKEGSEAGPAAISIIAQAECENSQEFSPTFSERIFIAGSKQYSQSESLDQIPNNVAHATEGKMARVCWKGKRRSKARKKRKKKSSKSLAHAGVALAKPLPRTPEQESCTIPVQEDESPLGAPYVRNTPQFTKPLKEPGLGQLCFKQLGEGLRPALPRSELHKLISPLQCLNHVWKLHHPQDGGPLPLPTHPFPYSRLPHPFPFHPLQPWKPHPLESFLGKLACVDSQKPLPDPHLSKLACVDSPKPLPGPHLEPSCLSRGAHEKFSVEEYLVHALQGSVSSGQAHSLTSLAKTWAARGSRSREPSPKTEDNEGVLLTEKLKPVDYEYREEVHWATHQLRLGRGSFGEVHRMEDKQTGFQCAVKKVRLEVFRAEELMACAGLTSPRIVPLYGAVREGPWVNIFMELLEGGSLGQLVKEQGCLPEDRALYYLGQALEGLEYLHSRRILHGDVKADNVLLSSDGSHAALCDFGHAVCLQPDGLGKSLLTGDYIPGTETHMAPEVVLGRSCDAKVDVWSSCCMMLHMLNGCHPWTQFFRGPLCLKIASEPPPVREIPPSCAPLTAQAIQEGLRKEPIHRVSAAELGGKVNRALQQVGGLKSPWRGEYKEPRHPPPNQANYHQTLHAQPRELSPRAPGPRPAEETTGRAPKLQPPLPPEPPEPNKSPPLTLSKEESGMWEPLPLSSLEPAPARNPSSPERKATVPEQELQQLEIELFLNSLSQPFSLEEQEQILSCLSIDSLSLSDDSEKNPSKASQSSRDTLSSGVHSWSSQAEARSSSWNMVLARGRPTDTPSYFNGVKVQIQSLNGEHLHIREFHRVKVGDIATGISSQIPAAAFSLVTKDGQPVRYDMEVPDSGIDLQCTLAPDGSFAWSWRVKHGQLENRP
How it was run: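 Fluorescence-polarization ADP detection (tracer displacement, 633 nm excitation) read after EDTA/Brij quench. Reaction: 0.2-1 nM insect-cell-derived NIK, 10 uM ATP, HEPES pH 7.2 with MgCl2 and DTT, 1% DMSO, 1-3.5 h with compounds.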

| Ki [3] [µM] | IC50 ([1]; HeLa) [nM] | Structure (SMILES) | IC50 [1] [nM] | IC50 [2] [nM] | IC50 ([2]; HeLa, 5 h) [nM] |
| --- | --- | --- | --- | --- | --- |
| 0.002 | 20000 | Cn1nccc1Cn1c(C(N)=O)nc2c1C1CC(C1)c1cc(F)c(C#CC(C)(C)O)cc1-2 [Example 391] | – | – | 36.8 |
| 0.0018 | > 20000 | Cc1nc([C@](C)(O)C#Cc2ccc3c(c2)-c2nc(C(N)=O)n(C)c2C2CC3C2)no1 [Example 426] | – | – | 406 |

| Structure (SMILES) | Ki [3] [µM] | IC50 ([1]; HeLa) [nM] | IC50 [1] [nM] | IC50 [2] [nM] | IC50 ([2]; HeLa, 5 h) [nM] |
| --- | --- | --- | --- | --- | --- |
| CC(C)(O)C#Cc1cc2c(cc1F)C1CC(C1)n1c-2nc(C(N)=O)c1C1(O)COC1 [Example 339, 9-fluoro-10-(3-hydroxy-3-methyl-but-1-ynyl)-3-(3-hydroxyoxetan-3-yl)-5,6,7,12-tetrahydro-5,7-methanobenzo[c]imi-dazo[1,2-a]azepine-2-carboxamide] | 0.007 | – | > 20000 | 2600 | – |
